Measured values: patent US6057335A, “Pyrazole derivatives” (Banyu Pharmaceutical Co., Ltd., priority 1996, dated 2000)

Target: T1, human NPY Y5 receptor (Homo sapiens, UniProt Q15761)
T1 construct: expressed in transfected cells; host or cells: COS-7, CHO and LM(tk-)
T1 sequence (Q15761 1-445): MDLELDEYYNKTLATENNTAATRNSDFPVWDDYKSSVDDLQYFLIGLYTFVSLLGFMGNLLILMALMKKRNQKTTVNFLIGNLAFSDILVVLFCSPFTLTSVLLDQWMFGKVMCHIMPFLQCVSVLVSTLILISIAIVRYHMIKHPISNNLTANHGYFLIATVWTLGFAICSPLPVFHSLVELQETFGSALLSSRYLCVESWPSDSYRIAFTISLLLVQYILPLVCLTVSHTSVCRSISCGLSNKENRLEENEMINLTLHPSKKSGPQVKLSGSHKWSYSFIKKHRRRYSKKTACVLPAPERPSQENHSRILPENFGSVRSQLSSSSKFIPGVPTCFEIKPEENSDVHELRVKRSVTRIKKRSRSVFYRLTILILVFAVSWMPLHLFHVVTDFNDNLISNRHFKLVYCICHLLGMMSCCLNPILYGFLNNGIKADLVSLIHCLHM
Assay: test of inhibition of NPY binding ([125I] peptide YY binding to NPY Y5 receptor)
Conditions: [125I] peptide YY 20,000 cpm, 25° C., 2 hours, pH 7.4, membrane preparations of cells expressing NPY Y5 receptor; read-out: IC50 value (concentration needed to inhibit 50% of the specific binding to the peptide YY)
Description: Pharmacological Test Example 1 (test of inhibition of NPY binding)
cDNA Sequence encoding a human NPY Y5 receptor [International Publication WO 96/16542] was cloned into expression vectors pcDNA3, pRc/RSV (manufactured by Invitrogen) and pCI-neo (manufactured by Promega). Using the cationic lipid method [see Proceedings of the National Academy of Science of the United States of America, vol.84, p.7413 (1987)], host cells COS-7, CHO and LM(tk-) (American Type Culture Collection) were transfected with the thus prepared expression vectors to obtain cells in which the NPY Y5 receptor had been expressed.
Each of the membrane preparations thus prepared from the cells in which the NPY Y5 receptor had been expressed was incubated together with each compound to be tested and 20,000 cpm of [^125 I] peptide YY (manufactured by Amersham) at 25° C. for 2 hours in an assay buffer solution (25 mM HEPES buffer, pH 7.4, containing 10 mM magnesium chloride, 1 mM phenylmethylsulfonyl fluoride and 0.1% bacitracin) and then, the reaction mixture was filtered through a glass filter GF/C. After washing with 50 mM Tris buffer, pH 7.4, containing 0.3% BSA, radioactivity on the glass filter was measured using a gamma counter. […]

- IC50: 2.5 nM
Structure (SMILES): COc1ccc(-c2cc(NC(=O)C3Cc4cc5ccccc5cc4C3)n[nH]2)cc1OC [Example 30, 3-(2,3-dibydro-1H-cyclopenta[b]naphthalen-2-yl)carbonylamino-5-(3,4-dimethoxyphenyl)pyrazole]
